Activity calls are given as the source filed them. No rule for the calls is given here.
molecular target: Bcl-2-related protein A1 (Mus musculus) (UniProt Q07440); assay: Bfl-1 counter-screen inhibitors, SAR follow-up, counter-screen for UBC13 polyubiquitination inhibitor project, biochemical, mouse Bfl-1 (AID 504685); conditions: Bfl-1 counterscreen for UBC13 inhibitors

SMILES	IC50
CCOC(=O)c1c(NC(=O)COc2ccccc2C#N)sc2c1CC(C)(C)NC2(C)C	> 100 µM (inactive)
O=C(CCCn1c(=O)c2ccccc2n(Cc2ccccc2F)c1=O)NC1CCN(Cc2ccccc2)CC1	> 100 µM (inactive)
O=C(CCCCCN1C(=O)c2ccccc2C1=O)NCCc1nc2ccccc2[nH]1	> 100 µM (inactive)
COc1ccc(CCNC(=O)CCCCCN2C(=O)c3ccccc3C2=O)cc1OC	> 100 µM (inactive)
COC(=O)c1ccc(OCC(O)CN2CCN(CCN3C(=O)c4cccc5cccc(c45)C3=O)CC2)cc1 (stereo not given)	56.9 µM
Cc1cc(OCC(O)CN2CCN(CCN3C(=O)c4cccc5cccc(c45)C3=O)CC2)ccc1C(C)C (stereo not given)	> 100 µM (inactive)
O=C(CCCCCN1C(=O)c2ccccc2C1=O)NCc1ccccc1	> 100 µM (inactive)
Cc1ccc(NC(=O)C2CCN(c3ncnc4c3nc3n4CCCCC3)CC2)cc1Cl	> 100 µM (inactive)
O=C1c2cccc3cccc(c23)C(=O)N1CCN1CCN(CC(O)COc2ccc3ccccc3c2)CC1 (stereo not given)	> 100 µM (inactive)
O=C(NCC1CCN(Cc2ccccc2F)CC1)C1CCCN(c2ncnc3c2nc2n3CCCCC2)C1 (stereo not given)	> 100 µM (inactive)
N#Cc1ccccc1Cn1c(=O)n(CCCC(=O)NC2CCN(Cc3ccccc3)CC2)c(=O)c2ccccc21	> 100 µM (inactive)
COc1ccc(NC(=O)CCCCCN2C(=O)c3cccc([N+](=O)[O-])c3C2=O)cc1	> 100 µM (inactive)
CCCCN(CC)S(=O)(=O)c1ccc(C(=O)N(CCCN(C)C)c2nc3cc(C)cc(C)c3s2)cc1	> 100 µM (inactive)
O=C(CCCn1c(=O)c2ccccc2n(Cc2ccc(Cl)cc2)c1=O)NC1CCN(Cc2ccccc2)CC1	> 100 µM (inactive)
O=C1c2cccc3cccc(c23)C(=O)N1CCN1CCN(CC(O)COc2ccccc2)CC1 (stereo not given)	> 100 µM (inactive)
Cc1cccc(C)c1NC(=O)Cn1c(=O)n(CCCC(=O)NC2CCN(Cc3ccccc3)CC2)c(=O)c2ccccc21	> 100 µM (inactive)
O=C1c2cccc3cccc(c23)C(=O)N1CCN1CCN(CC(O)COCc2ccc(Cl)cc2)CC1 (stereo not given)	> 100 µM (inactive)
O=C(C1CCN(c2ncnc3c2nc2n3CCCCC2)CC1)N1CCN(c2ccccn2)CC1	> 100 µM (inactive)
O=C(CCCCCN1C(=O)c2cccc3cccc(c23)C1=O)NCCO	> 100 µM (inactive)
Cc1ccc(C)c(CN2CCC(CNC(=O)C3CCCN(c4ncnc5c4nc4n5CCCCC4)C3)CC2)c1 (stereo not given)	> 100 µM (inactive)
O=C(c1ccco1)N1CCN(C(=O)C2CCN(c3ncnc4c3nc3n4CCCCC3)CC2)CC1	> 100 µM (inactive)
O=C(NCCCN1CCN(c2ccccc2)CC1)C1CCCN(c2ncnc3c2nc2n3CCCCC2)C1 (stereo not given)	> 100 µM (inactive)
CN1CCN(CCCNC(=O)c2ccc(/C=C3\Oc4ccccc4N(Cc4ccc(Cl)cc4)C3=O)cc2)CC1	> 100 µM (inactive)

SMILES	IC50
CCN(Cc1ccccc1)S(=O)(=O)c1ccc(C(=O)N(CCCN(C)C)c2nc3cc4c(cc3s2)OCCO4)cc1	84 µM
O=C(c1ccc(S(=O)(=O)N2CCCC2)cc1)N1CCC(CN2C(=O)c3cccc4cccc(c34)C2=O)CC1	> 100 µM (inactive)
Cc1ccccc1NC(=S)NC(=O)CCCCCN1C(=O)c2ccccc2C1=O	> 100 µM (inactive)
Cc1cc(C)c2sc(N(CCCN(C)C)C(=O)c3ccc(S(=O)(=O)N(C)C4CCCCC4)cc3)nc2c1	> 100 µM (inactive)
Cc1ccc2nc(N(CCCN(C)C)C(=O)c3ccc4c(c3)CCCC4)sc2c1	> 100 µM (inactive)
O=C(CCCCn1c(=O)c2ccccc2n(Cc2ccccc2F)c1=O)NC1CCN(Cc2ccccc2)CC1	> 100 µM (inactive)
CCCOC(=O)c1ccc(NC(=O)CCCCCN2C(=O)c3ccccc3C2=O)cc1	> 100 µM (inactive)
CC(=O)c1ccc(OCC(O)CN2CCN(CCN3C(=O)c4cccc5cccc(c45)C3=O)CC2)cc1 (stereo not given)	73.5 µM
CCC1CCCCN1CCCNC(=O)C1CCN(c2ncnc3c2nc2n3CCCCC2)CC1 (stereo not given)	> 100 µM (inactive)
Cc1cccc(OCC(O)CN2CCN(CCN3C(=O)c4cccc5cccc(c45)C3=O)CC2)c1C (stereo not given)	> 100 µM (inactive)
O=C(NCC1CCN(Cc2cccc(Cl)c2)CC1)C1CCCN(c2ncnc3c2nc2n3CCCCC2)C1 (stereo not given)	> 100 µM (inactive)
COc1ccccc1NC(=S)NC(=O)CCCCCN1C(=O)c2ccccc2C1=O	> 100 µM (inactive)
O=C(CCCCn1c(=O)c2ccccc2n(Cc2ccccc2)c1=O)NC1CCN(Cc2ccccc2)CC1	> 100 µM (inactive)
Cc1ccc(C)c(OCC(O)CN2CCN(CCN3C(=O)c4cccc5cccc(c45)C3=O)CC2)c1 (stereo not given)	> 100 µM (inactive)
CCOc1cccc2sc(N(CCCN(C)C)C(=O)c3ccc(S(=O)(=O)N4CCc5ccccc5C4)cc3)nc12	> 100 µM (inactive)
O=C(C1CCN(c2ncnc3c2nc2n3CCCCC2)CC1)N1CCOCC1	> 100 µM (inactive)
COc1cccc2sc(N(CCCN(C)C)C(=O)c3ccc(S(=O)(=O)N4CCc5ccccc5C4)cc3)nc12	24.1 µM
O=C(C1CCN(c2ncnc3c2nc2n3CCCCC2)CC1)N1CCN(c2ccccc2)CC1	> 100 µM (inactive)
O=C1c2cccc3cccc(c23)C(=O)N1CC1CCN(CC(O)COc2ccc3ccccc3c2)CC1 (stereo not given)	68.5 µM
O=C(CCCCCN1C(=O)c2ccccc2C1=O)N1CCN(c2ccc([N+](=O)[O-])cc2)CC1	> 100 µM (inactive)
O=C(CCCCCN1C(=O)c2ccccc2C1=O)Nc1nc(C2CC2)cs1	> 100 µM (inactive)
COc1ccc2sc(N(CCCN(C)C)C(=O)c3ccc(S(=O)(=O)N4CCc5ccccc5C4)cc3)nc2c1	> 100 µM (inactive)
